Experimental data published in patent US20160375155A1, “Collagen Imaging Compositions” (Collagen Medical, LLC, priority 2015, published 2016).
Where two headings read alike, the source gives them in different places. Bridge positions count the residues as written; N and C are the ends. Square brackets hold non-standard residues; d marks the D form. Peptide text beside a SMILES is read from it. * marks the point of attachment. X1 = O=C(O)CN1CCN(CC(=O)O)CCN([C@H](CCC(=O)*)C(=O)O)CCN(CC(=O)O)CC1; Bip = N[C@@H](Cc1ccc(-c2ccccc2)cc1)C(=O)O

Assays:
[1] = Relaxivity in PBS (Bruker mq60, 60 MHz); assay type: physicochemical; conditions: pH 7.4 PBS at 1.4 T, 37° C.
Procedure: The relaxivity of Compound ID Nos. 1, 2 and 4 were determined in PBS at 37° C. using a Bruker mq60 spectrometer operating at 60 MHz (1.4 tesla). Samples were equilibrated at concentrations ranging from 0-200 μM for at least 30 minutes at 37° C. T1 was measured using an inversion recovery sequence. Relaxivities were calculated by subtracting the relaxation rate of the buffer […] and then dividing the result by the concentration of Compound.

human type I collagen = molecular target: T1, human type I collagen (Homo sapiens, UniProt P02452+P08123); experiment: Collagen binding assay, dried human collagen plate; conditions: 37° C., pH 7.4; collagen 5 μM; fit to 1 binding site
T1 construct: purchased Advanced Biomatrix 5007-A
Procedure: 10 ml of a solution of 3 mg/ml of human type I collagen (VitroCol solution, Advanced Biomatrix, cat#5007-A) is dialyzed against 10 mM Phosphate (NaH2PO4), pH 4.2 at 4° C. with three changes of the dialysis buffer. The protein concentration is determined by liquid chromatography determination of hydroxyproline (P. Hutson, J. Chromatogr. B, 791 (2003) 427-430).
(§1) Ice-cold 1×PBS pH 10.8 is added to the collagen solution for a final collagen concentration of 10 μM, pH 7.4. Collagen solutions are gelled and dried down in the wells of a 96 well microtiter plate (Corning Polystyrene Flat Bottom, cat#3641). […] The final well content of gelled collagen is measured by determination of hydroxyproline and is around 180 μg/ml.
(§2) a serial dilution of 0.2 μM-30 μM of the peptide chelate is prepared in PBS, pH 7.4 (˜300 μL of solution for each concentration). […] The concentration of free, unbound compound in the sample supernatants and the concentration of compound in the reserved (total) sample are determined by ICP-MS (Agilent 7500, gadolinium concentration). The concentration of compound bound to collagen is determined as [bound]=[total]−[unbound].
(§3) The binding of compounds to human, rat and dog collagen (5 μM) was measured over the concentration range 0.2-5 μM of Comp ID Nos.: 1-4. […]

[2] = molecular target: T2, rat collagen (acid soluble, type I, rat tail) (Rattus norvegicus, UniProt P02454+P02466); experiment: Collagen binding assay, dried rat collagen plate; conditions: 37° C., pH 7.4; collagen 5 μM; fit to 1 binding site
T2 construct: rat collagen (acid soluble, type I, rat tail, Millipore Inc, cat#08-115); purchased Millipore Inc 08-115; host or cells: rat tail
Procedure: 10 ml of a 3.79 mg/mL solution of rat collagen (acid soluble, type I, rat tail, Millipore Inc, cat#08-115) is dialyzed against 10 mM Phosphate (NaH2PO4), pH 4.2 at 4° C. with three changes of the dialysis buffer.
as §1, with “cat#3641). 70 μl of 10 μM collagen is aliquoted into each well in every other lane in the plate (48 wells) and the plate is incubated at 37° C. for 18 hours to form a gel and evaporate to dryness.” for “cat#3641).”
as §2, §3

[3] = molecular target: Native canine Collagen Type I and III protein; experiment: Collagen binding assay, dried dog collagen plate; conditions: 37° C., pH 7.4; collagen 5 μM; fit to 1 binding site
Procedure: Canine collagen (Native canine Collagen Type I and III protein, YO protein AB, cat#739) is dissolved in 0.5 M acetic acid at 3.3 mg/ml by vortexing and shaking overnight at 4° C. The solution is then dialyzed against 10 mM Phosphate (NaH2PO4), pH 4.2 at 4° C. with three changes of the dialysis buffer.
Ice-cold 1×PBS pH 10.8 is added to the collagen solution for a final collagen concentration of 10 μM, pH 7.4. Collagen solutions are gelled and dried down in the wells of a 96 well microtiter plate (Corning Polystyrene Flat Bottom, cat#3641). 70 μl of 10 μM collagen is aliquoted into each well in every other lane in the plate (48 wells) and the plate is incubated at 37° C. for 18 hours to form a gel and evaporate to dryness. Ungelled collagen is removed by washing the collagen films with 200 μl 1×PBS pH 7.4 (four times, 15 min per wash). The thin collagen fibril film remains, coating the bottom of each well. After washing by PBS the plate is again dried at 37° C. for 2 hours and is stored at −20° C. The final well content of gelled collagen is measured by determination of hydroxyproline and is around 180 μg/ml.
a serial dilution of 0.2 μM-30 μM of the peptide chelate is prepared in PBS, pH 7.4 (˜300 μL of solution for each concentration). 90 μl of each concentration is also reserved in a HPLC glass vial as a sample to measure the total concentration. 140 μL of each dilution of peptide chelate is added to wells containing and non-containing collagen (control for nonspecific plastic binging). The plate is then incubated on a shaker table (300 rpm) for 2 hours at room temperature to allow the compound to bind. […] The concentration of free, unbound compound in the sample supernatants and the concentration of compound in the reserved (total) sample are determined by ICP-MS (Agilent 7500, gadolinium concentration). The concentration of compound bound to collagen is determined as [bound]=[total]−[unbound].
as §3

[4] = test system: acute and chronic myocardial infarct (fibrosis); assay type: in vivo, canine; conditions: for CNR between infarct and blood: Compound ID No. 1 0.0075 mmol/kg, extracellular gadolinium 0.2 mmol/kg
Text: An experimental protocol was developed to test the ability of Compound ID No. 1 to differentiate acute from chronic myocardial infarction in an in-vivo large animal (canine) model. In this model, early following acute myocardial infarction, pathologic fibrosis has not fully developed within the infarct zone (fibrosis-poor), whereas in chronic MI (˜8 weeks following MI), dense fibrosis fully replaced necrotic myocardium (fibrosis-rich).
In the myocardial fibrosis canine model, a vascular occluder was placed surgically around the left anterior descending coronary artery (LAD) to allow occlusion and reperfusion. Two animals were studied following acute MI and two additional animals were studied both following acute MI, and chronically at 8 weeks. The LAD vessel was completely occluded for 70-90 minutes and then released to allow reperfusion. The chest was sutured closed, and the animal was allowed to recover. Imaging was performed on a 3 T clinical scanner in an acute (<1 week, minimal fibrosis expected in acute necrosis) and chronic (8 weeks, healing complete, necrotic myocardium replaced by dense collagenous scar) time point after infarction. For each time point, the animals undergo 2 scans separated by 48 hours with conventional gadolinium contrast (0.2 mmol/kg GdDTPA) and Compound ID No. 1 (0.0075 mmol/kg).
Imaging was performed on a 3 T clinical scanner (Siemens Verio). Breath holding was achieved by temporarily turning off the animal ventilator, and all images were ECG gated. Standard short and long axis cine imaging was performed throughout the left ventricle to identify left ventricular function and regional wall motion abnormalities. Delayed enhancement imaging (segmented 2D inversion recovery gradient echo) was performed prior to and serially following Compound ID No. 1 administration. Two strategies were employed: (1) a fixed inversion time was chosen to null pre-contrast myocardium (TI˜650 ms), and (2) a variable inversion time set to null post-contrast myocardium as is performed in traditional delayed enhancement imaging.
After imaging, animals were euthanized and post mortem analysis of myocardium was performed. Tissue was assessed grossly by histopathologic staining with triphenyltetrazolium chloride for myocardial infarction, and microscopically with Masson's trichrome staining for fibrosis. Additionally quantitative tissue analysis for hydroxyproline was used to measure total collagen content in tissue and compared to tissue gadolinium concentration by inductively coupled plasma-mass spectrometry. MR data was analyzed quantitatively for conspicuity of infarction and image quality as well as contrast to noise ratio (CNR) for infarct-normal myocardium and infarct-blood.

myocardial collagen = conditions: rat MI model, healthy and infarcted heart
Procedure: Myocardial infarction was induced in Sprague Dawley rats by occlusion of the left anterior descending coronary artery followed by reperfusion. The rats were anesthetized with an intraperitoneal (i.p.) injection of 100 μg pentobarbital sodium per gram body weight and a thorocotamy was performed. The pericardium was removed and the left anterior artery was sutured with a 7.0 silk suture for 60 minutes after which reperfusion was established.
Animals were sacrificed at 60 minutes post-injection and the heart removed and sectioned for analysis.
The slope for this correlation is a measure of efficacy.

T2 sequence (P02454 152-1207 limits assumed): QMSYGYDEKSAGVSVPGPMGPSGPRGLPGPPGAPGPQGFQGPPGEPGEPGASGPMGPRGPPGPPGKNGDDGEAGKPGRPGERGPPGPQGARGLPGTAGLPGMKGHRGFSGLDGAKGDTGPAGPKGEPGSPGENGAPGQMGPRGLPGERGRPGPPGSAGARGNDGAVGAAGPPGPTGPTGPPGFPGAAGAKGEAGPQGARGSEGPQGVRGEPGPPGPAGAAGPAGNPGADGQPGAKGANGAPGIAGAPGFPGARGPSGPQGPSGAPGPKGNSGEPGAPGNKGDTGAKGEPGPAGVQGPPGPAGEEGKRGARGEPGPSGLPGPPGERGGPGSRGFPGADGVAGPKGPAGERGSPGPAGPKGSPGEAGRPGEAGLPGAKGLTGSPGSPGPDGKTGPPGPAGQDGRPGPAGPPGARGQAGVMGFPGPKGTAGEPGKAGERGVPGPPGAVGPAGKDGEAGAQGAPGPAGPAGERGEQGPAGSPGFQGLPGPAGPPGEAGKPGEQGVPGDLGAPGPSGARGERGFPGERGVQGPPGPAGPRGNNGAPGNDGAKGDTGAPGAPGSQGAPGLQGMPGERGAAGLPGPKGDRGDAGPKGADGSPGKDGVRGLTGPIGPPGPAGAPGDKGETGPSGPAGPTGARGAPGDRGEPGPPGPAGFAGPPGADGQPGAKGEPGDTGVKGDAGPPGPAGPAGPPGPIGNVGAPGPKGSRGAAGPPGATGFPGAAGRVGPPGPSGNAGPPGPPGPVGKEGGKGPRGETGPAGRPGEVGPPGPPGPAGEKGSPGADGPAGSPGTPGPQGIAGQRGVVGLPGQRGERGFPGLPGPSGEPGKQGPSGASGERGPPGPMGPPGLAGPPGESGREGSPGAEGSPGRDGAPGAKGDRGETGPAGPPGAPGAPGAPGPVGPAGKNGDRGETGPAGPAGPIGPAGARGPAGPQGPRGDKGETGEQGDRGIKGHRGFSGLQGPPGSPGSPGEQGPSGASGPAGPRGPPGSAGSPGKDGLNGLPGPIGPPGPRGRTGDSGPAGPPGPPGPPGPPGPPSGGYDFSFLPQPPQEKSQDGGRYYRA
T2 sequence (P02466 86-1125 limits assumed): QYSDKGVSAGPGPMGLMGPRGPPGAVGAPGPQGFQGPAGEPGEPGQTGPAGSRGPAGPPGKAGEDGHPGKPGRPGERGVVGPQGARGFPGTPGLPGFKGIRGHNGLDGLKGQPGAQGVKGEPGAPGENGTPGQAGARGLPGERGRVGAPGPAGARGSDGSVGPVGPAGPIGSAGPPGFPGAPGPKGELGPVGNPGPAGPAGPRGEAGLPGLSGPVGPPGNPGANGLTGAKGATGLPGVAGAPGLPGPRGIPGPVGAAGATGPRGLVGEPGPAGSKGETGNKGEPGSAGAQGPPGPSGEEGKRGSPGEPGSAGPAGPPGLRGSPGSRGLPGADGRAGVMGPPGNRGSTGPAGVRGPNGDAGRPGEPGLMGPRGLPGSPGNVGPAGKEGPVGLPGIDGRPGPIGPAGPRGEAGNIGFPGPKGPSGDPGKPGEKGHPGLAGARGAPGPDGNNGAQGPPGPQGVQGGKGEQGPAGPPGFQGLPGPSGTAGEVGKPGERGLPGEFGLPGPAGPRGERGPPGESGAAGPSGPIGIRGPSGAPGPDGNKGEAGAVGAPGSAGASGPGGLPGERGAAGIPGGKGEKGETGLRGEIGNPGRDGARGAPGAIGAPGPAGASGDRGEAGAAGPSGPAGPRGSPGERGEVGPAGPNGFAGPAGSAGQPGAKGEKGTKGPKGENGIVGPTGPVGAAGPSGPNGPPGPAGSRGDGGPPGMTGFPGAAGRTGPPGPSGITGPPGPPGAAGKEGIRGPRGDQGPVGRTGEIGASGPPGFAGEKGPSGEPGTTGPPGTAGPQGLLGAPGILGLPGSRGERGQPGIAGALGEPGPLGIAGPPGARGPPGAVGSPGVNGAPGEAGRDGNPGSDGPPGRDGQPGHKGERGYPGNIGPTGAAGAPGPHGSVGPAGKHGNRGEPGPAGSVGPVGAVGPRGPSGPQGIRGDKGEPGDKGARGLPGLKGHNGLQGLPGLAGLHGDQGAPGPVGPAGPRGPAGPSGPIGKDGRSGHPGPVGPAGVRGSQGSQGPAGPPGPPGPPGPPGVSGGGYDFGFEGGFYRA
T1 sequence (P02452 162-1218 limits assumed): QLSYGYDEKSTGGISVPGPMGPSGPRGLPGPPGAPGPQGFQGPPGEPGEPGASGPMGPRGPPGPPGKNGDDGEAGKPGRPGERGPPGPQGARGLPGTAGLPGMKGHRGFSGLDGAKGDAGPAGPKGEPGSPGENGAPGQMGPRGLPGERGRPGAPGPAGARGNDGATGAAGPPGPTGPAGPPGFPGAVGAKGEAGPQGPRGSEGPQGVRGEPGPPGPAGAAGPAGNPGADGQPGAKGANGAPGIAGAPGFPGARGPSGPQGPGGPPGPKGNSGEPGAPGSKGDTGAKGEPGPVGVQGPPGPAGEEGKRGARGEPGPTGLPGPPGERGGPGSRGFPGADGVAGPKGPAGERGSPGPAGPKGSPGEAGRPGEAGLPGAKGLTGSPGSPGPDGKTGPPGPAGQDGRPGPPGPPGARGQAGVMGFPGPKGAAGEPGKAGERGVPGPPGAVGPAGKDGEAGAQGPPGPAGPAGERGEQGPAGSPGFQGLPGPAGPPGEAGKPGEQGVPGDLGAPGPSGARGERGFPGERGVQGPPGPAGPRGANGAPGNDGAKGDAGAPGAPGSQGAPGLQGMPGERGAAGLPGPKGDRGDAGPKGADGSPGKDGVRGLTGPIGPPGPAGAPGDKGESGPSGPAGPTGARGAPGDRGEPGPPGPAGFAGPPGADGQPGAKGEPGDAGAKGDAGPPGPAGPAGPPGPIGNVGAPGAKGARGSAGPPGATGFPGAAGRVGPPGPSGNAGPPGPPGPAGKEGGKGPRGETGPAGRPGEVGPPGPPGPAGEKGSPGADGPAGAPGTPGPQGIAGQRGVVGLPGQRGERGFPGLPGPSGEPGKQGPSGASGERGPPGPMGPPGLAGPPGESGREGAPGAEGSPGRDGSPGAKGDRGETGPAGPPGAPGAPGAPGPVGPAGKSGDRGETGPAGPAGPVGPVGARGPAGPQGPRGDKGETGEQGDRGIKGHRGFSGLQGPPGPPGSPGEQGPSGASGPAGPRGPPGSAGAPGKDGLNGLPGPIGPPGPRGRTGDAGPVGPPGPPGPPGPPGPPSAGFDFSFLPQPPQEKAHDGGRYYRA
T1 sequence (P08123 80-1119 limits assumed): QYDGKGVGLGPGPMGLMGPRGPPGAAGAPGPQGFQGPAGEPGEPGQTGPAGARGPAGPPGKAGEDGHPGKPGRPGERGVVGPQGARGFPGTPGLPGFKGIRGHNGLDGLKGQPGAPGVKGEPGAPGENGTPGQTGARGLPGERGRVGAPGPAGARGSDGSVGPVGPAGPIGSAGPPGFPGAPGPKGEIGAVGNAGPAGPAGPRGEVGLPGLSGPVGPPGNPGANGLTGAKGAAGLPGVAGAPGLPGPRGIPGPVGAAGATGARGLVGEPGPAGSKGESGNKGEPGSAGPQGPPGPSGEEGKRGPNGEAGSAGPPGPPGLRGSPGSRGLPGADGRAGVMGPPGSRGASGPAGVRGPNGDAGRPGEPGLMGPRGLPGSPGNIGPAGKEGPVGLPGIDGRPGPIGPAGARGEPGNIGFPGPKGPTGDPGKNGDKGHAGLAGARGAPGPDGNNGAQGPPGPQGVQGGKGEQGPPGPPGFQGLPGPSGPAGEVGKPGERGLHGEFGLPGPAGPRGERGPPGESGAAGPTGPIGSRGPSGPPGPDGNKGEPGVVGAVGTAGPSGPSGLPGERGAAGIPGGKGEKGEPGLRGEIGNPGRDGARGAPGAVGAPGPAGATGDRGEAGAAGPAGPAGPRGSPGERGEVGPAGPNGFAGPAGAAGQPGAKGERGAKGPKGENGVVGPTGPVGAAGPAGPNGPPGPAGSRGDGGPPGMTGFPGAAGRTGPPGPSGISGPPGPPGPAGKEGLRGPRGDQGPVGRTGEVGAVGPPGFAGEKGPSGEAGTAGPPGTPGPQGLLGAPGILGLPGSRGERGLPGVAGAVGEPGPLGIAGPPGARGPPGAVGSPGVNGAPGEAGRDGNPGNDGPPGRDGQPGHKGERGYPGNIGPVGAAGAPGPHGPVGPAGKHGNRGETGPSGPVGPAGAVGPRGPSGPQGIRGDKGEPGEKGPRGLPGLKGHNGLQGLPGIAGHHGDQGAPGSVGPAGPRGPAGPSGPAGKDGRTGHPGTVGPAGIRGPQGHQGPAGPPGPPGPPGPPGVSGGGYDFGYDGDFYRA

| Compound | R1 (relaxivity) [1] [mM⁻¹ s⁻¹] | Kd (human type I collagen) [µM] | Kd [2] [µM] | Kd [3] [µM] | MR image uptake in scar vs healthy myocardium ([4]; chronic myocardial infarction, FIG. 25b) | calculated slope, hydroxyproline vs. gadolinium concentration (myocardial collagen) | CNR between infarct and blood ([4]; acute MI) | CNR between infarct and blood ([4]; chronic MI (8 weeks)) |
| --- | --- | --- | --- | --- | --- | --- | --- | --- |
| CC(C)C[C@H](NC(=O)[C@@H]1CSSC[C@H](NC(=O)[C@H](Cc2c[nH]cn2)NC(=O)[C@H](Cc2c[nH]c3ccccc23)NC(=O)[C@H](CCCCNC(=O)CC[C@H](C(=O)O)N2CCN(CC(=O)O)CCN(CC(=O)O)CCN(CC(=O)O)CC2)NC(=O)CC[C@H](C(=O)O)N2CCN(CC(=O)O)CCN(CC(=O)O)CCN(CC(=O)O)CC2)C(=O)N[C@@H]([C@@H](C)O)C(=O)N[C@@H]([C@@H](C)O)C(=O)N[C@@H](CCCCNC(=O)CC[C@H](C(=O)O)N2CCN(CC(=O)O)CCN(CC(=O)O)CCN(CC(=O)O)CC2)C(=O)N[C@@H](Cc2ccccc2)C(=O)N2CCC[C@H]2C(=O)N[C@@H](Cc2c[nH]cn2)C(=O)N[C@@H](Cc2c[nH]cn2)C(=O)N[C@@H](Cc2ccc(O)cc2)C(=O)N1)C(=O)N[C@@H](Cc1ccc(O)cc1)C(=O)N[C@@H](Cc1ccc(-c2ccccc2)cc1)C(N)=O [Compound ID No. 2] (X1-K(X1)WHCTTK(X1)FPHHYCLY[Bip]-NH2; disulfide 4-13) | 42.9 | 4.9 | 20.6 | 4.9 | early uptake | 3184 | – | – |
| CC(C)[C@H](NC(=O)[C@@H]1CSSC[C@H](NC(=O)[C@H](Cc2c[nH]cn2)NC(=O)[C@H](Cc2c[nH]c3ccccc23)NC(=O)[C@H](CCCCNC(=O)CC[C@H](C(=O)O)N2CCN(CC(=O)O)CCN(CC(=O)O)CCN(CC(=O)O)CC2)NC(=O)CC[C@H](C(=O)O)N2CCN(CC(=O)O)CCN(CC(=O)O)CCN(CC(=O)O)CC2)C(=O)N[C@@H](Cc2ccc(O)cc2)C(=O)N[C@@H]([C@@H](C)O)C(=O)N[C@@H](CCCCNC(=O)CC[C@H](C(=O)O)N2CCN(CC(=O)O)CCN(CC(=O)O)CCN(CC(=O)O)CC2)C(=O)N[C@@H](Cc2ccccc2)C(=O)N2CCC[C@H]2C(=O)N[C@@H](Cc2c[nH]cn2)C(=O)N[C@@H](Cc2c[nH]cn2)C(=O)N[C@@H](Cc2ccc(O)cc2)C(=O)N1)C(=O)N[C@@H](Cc1ccc(O)cc1)C(=O)N[C@@H](Cc1ccc(-c2ccccc2)cc1)C(N)=O [Compound ID No. 4] (X1-K(X1)WHCYTK(X1)FPHHYCVY[Bip]-NH2; disulfide 4-13) | 51.2 | 9.6 | 4.6 | 2 | – | 3057 | – | – |
| O=C([O-])CN(CCN(CC(=O)[O-])CC(=O)O)CCN(CC(=O)[O-])CC(=O)O.[Gd+3] [extracellular gadolinium, gadolinium diethylenetriaminepentaacetate, reference compound] | – | – | – | – | – | – | 6.3±3.4 | 5±1.3 |
